# In patent US10485795B2, “FXR (NR1H4) binding and activity modulating compounds” (Gilead Sciences, Inc., priority 2011, dated 2019):
# Like-named read-outs stand apart in the source and are kept apart here.
# Experiments:
# [1] = target: T1, human FXR alpha ligand binding domain (Homo sapiens, UniProt Q96RI1); assay: FRET activity assay (ligand mediated cofactor peptide interaction); format: biochemical
# T1 construct: made in house; host or cells: E. coli BL21(DE3), vector pDEST15
# T1 sequence (Q96RI1 187-472 isoform Q96RI1-2): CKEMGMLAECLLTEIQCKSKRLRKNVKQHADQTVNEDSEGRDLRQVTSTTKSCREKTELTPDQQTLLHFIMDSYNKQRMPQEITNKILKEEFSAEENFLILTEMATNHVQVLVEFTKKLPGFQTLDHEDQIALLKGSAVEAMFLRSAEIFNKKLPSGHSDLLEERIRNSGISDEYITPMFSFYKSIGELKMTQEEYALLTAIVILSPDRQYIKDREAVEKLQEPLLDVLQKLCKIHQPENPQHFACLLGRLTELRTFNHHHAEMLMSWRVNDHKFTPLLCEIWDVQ
# Description: Determination of a ligand mediated cofactor peptide interaction to quantify ligand binding to the nuclear receptor FXR was performed as follows: Preparation of human FXR alpha ligand binding domain: The human FXRalpha LBD was expressed in E. coli strain BL21(DE3) as an N-terminally GST tagged fusion protein. The DNA encoding the FXR ligand binding domain was cloned into vector pDEST15 (Invitrogen). Expression was under control of an IPTG inducible T7 promoter. The amino acid boundaries of the ligand binding domain were amino acids 187-472 of Database entry NM_005123 (RefSeq). Expression and purification of the FXR-LBD: An overnight preculture of a transformed E. coli strain was diluted 1:20 in LB-Ampicillin medium and grown at 30° C. to an optical density of OD600=0.4-0.6. Gene expression was then induced by addition of 0.5 mM IPTG. Cells were incubated an additional 6 h at 30° C., 180 rpm. Cells were collected by centrifugation (7000×g, 7 min, rt). Per liter of original cell culture, cells were resuspended in 10 mL lysis buffer (50 mM Glucose, 50 mM Tris pH 7.9, 1 mM EDTA and 4 mg/mL lysozyme) and left on ice for 30 min. Cells were then subjected to sonication and cell debris removed via centrifugation (22000×g, 30 min, 4° C.). Per 10 mL of supernatant 0.5 mL prewashed Glutathione 4B sepharose slurry (Qiagen) was added and the suspension kept slowly rotating for 1 h at 4° C. Glutathione 4B sepharose beads were pelleted by centrifugation (2000×g, 15 sec, 4° C.) and washed twice in wash buffer (25 mM Tris, 50 mM KCl, 4 mM MgCl2 and 1M NaCl). The pellet was resuspended in 3 mL elution buffer per liter of original culture (elution buffer: 20 mM Tris, 60 mM KCl, 5 mM MgCl2 and 80 mM glutathione added immediately prior to use as powder). The suspension was left rotating for 15 min at 4° C., the beads pelleted and eluted again with half the volume of elution buffer than the first time. The eluates were pooled and dialysed overnight in 20 mM Hepes buffer (pH 7.5) containing 60 mM KCl, 5 mM MgCl2 as well as 1 mM dithiothreitol and 10% (v/v) glycerol. The protein was analysed by SDS-Page.
# The method measures the ability of putative ligands to modulate the interaction between the purified bacterial expressed FXR ligand binding domain (LBD) and a synthetic biotinylated peptide based on residues 676-700 of SRC-1 (LCD2, 676-700). The sequence of the peptide used was B-[…]-COOH where the N-terminus was biotinylated (B). The ligand binding domain (LBD) of FXR was expressed as fusion protein with GST in BL-21 cells using the vector pDEST15. Cells were lysed by sonication, and the fusion proteins purified over glutathione sepharose (Pharmacia) according to the manufacturers instructions. For screening of compounds for their influence on the FXR-peptide interaction, the Perkin Elmer LANCE technology was applied. This method relies on the binding dependent energy transfer from a donor to an acceptor fluorophor attached to the binding partner of interest. For ease of handling and reduction of background from compound fluorescence LANCE technology makes use of generic fluorophore labels and time resolved detection Assays were done in a final volume of 25 μL in a 384 well plate, in a Tris-based buffer (20 mM Tris-HCl pH 7.5; 60 mM KCl, 5 mM MgCl2; 35 ng/μL BSA), containing 20-60 ng/well recombinantly expressed FXR-LBD fused to GST, 200-600 nM N-terminally biotinylated peptide, representing SRC1 aminoacids 676-700, 200 ng/well Streptavidin-xIAPC conjugate (Prozyme) and 6-10 ng/well Eu W1024-antiGST (Perkin Elmer). DMSO content of the samples was kept at 1%. After generation of the assay mix and diluting the potentially FXR modulating ligands, the assay was equilibrated for 1 h in the dark at rt in FIA-plates black 384 well (Greiner). The LANCE signal was detected by a Perkin Elmer VICTOR2VTM Multilabel Counter. The results were visualized by plotting the ratio between the emitted light at 665 and 615 nm. […]
# [2] = target: T2, FXR ligand binding domain (Homo sapiens, UniProt Q96RI1); assay: Mammalian One Hybrid (M1H) assay, Gal4 reporter in HEK293 cells; format: cell-based
# T2 construct: expressed in transfected cells; host or cells: HEK293 (DSMZ), transient transfection with a pCMV-BD construct
# T2 sequence (Q96RI1 187-472 isoform Q96RI1-2): T1 sequence (Q96RI1 187-472 isoform Q96RI1-2)
# Description: Determination of a ligand mediated Gal4 promoter driven transactivation to quantify ligand binding mediated activation of FXR was performed as follows: The cDNA part encoding the FXR ligand binding domain was cloned into vector pCMV-BD (Stratagene) as a fusion to the yeast GAL4 DNA binding domain under the control of the CMV promoter. […] The plasmid pFR-Luc (Stratagene) was used as the reporter plasmid, containing a synthetic promoter with five tandem repeats of the yeast GAL4 binding sites, driving the expression of the Photinus pyralis (American firefly) luciferase gene as the reporter gene. In order to improve experimental accuracy the plasmid pRL-CMV (Promega) was cotransfected. pRL-CMV contains the constitutive CMV promoter, controlling the expression of the Renilla reniformis luciferase. All Gal4 reporter gene assays were done in HEK293 cells (obtained from DSMZ, Braunschweig, Germany) grown in MEM with L-Glutamine and Earle's BSS supplemented with 10% fetal bovine serum, 0.1 mM nonessential amino acids, 1 mM sodium pyruvate, and 100 units Penicillin/[…] per mL at 37° C. in 5% CO2. Medium and supplements were obtained from Invitrogen. For the assay, […] were plated per well in 96 well plates in 100 μL per well MEM without Phenol Red and L-Glutamine and with Earle's BSS supplemented with 10% charcoal/dextran treated FBS (HyClone, South Logan, Utah), 0.1 mM nonessential amino acids, 2 mM glutamine, 1 mM sodium pyruvate, and 100 units Penicillin/[…] per mL, incubated at 37° C. in 5% CO2. The following day the cells were >90% confluence. […] MEM with the same composition as used for plating cells was added 2-4 h after addition of transfection mixture. Then compound stocks, prediluted in MEM were added (final vehicle concentration not exceeding 0.1%). […] All experiments were done in triplicates.
# [3] = FXR-LBD/SRC-1 peptide interaction, LANCE, read-out: EC50 (Group), FRET activity assay
# [4] = Gal4-FXR LBD transactivation, HEK293 cells, read-out: EC50 potency range (Group), M1H assay
"EC50 [1, 3] [nM]","EC50 [2, 4] [nM]",EC50 [1] [nM],EC50 [2] [nM],SMILES
> 100,> 100,,,"Cc1cc(C2CC(O)(c3ccc(OCc4c(-c5c(Cl)cccc5Cl)noc4C4CC4)cc3Cl)C2)cc(C)c1C(=O)O (single isomer, unassigned) [13/2]"
25 to 100,25 to 100,,,"COc1ccc(C(=O)O)cc1C1CC(O)(c2ccc(OCc3c(-c4c(Cl)cccc4Cl)noc3C3CC3)cc2Cl)C1 (single isomer, unassigned) [13/3]"
25 to 100,< 25,,,"Cc1ccc(C(=O)O)cc1C1CC(O)(c2ccc(OCc3c(-c4c(Cl)cccc4Cl)noc3C3CC3)cc2Cl)C1 (single isomer, unassigned) [13/4]"
25 to 100,< 25,,,"Cc1cc(C(=O)O)cc(C2CC(O)(c3ccc(OCc4c(-c5c(Cl)cccc5Cl)noc4C4CC4)cc3Cl)C2)c1 (single isomer, unassigned) [13/5]"
> 100,< 25,,,"Cc1ccc(C2CC(O)(c3ccc(OCc4c(-c5c(Cl)cccc5Cl)noc4C4CC4)cc3Cl)C2)cc1C(=O)O (single isomer, unassigned) [13/6]"
25 to 100,25 to 100,,,"O=C(O)c1cccc(N2CC(O)(c3ccc(OCc4c(-c5c(Cl)cccc5Cl)noc4C4CC4)cc3Cl)C2)c1 (single isomer, unassigned) [13/7]"
< 25,> 100,,,"O=C(O)c1cncc(N2CC(O)(c3ccc(OCc4c(-c5c(Cl)cccc5Cl)noc4C4CC4)cc3Cl)C2)c1 (single isomer, unassigned) [13/8]"
,,< 25,> 100,"O=C(O)c1ccnc(N2CC(O)(c3ccc(OCc4c(-c5c(Cl)cccc5Cl)noc4C4CC4)cc3Cl)C2)c1 (single isomer, unassigned) [13/9]"
25 to 100,25 to 100,,,"O=C(O)c1ccc(C2CC(O)(c3ccc(OCc4c(-c5c(Cl)cccc5Cl)noc4C4CC4)cc3Cl)C2)cc1 (single isomer, unassigned) [Example 13/1]"
< 25,,,,CC(C)n1nc(C(=O)NCCS(=O)(=O)O)cc1C1CC(O)(c2ccc(OCc3c(-c4c(Cl)cccc4Cl)noc3C3CC3)cc2Cl)C1 (stereo not shown) [14/2]
25 to 100,> 100,,,"COC(=O)c1cccc([C@H]2C[C@](O)(c3ccc(OCc4c(-c5c(Cl)cccc5Cl)noc4C4CC4)cc3Cl)C2)c1 [Example 1, Methyl 3-((1s,3s)-3-(2-chloro-4-((5-cyclopropyl-3-(2,6-dichlorophenyl)isoxazol-4-yl)methoxy)phenyl)-3-hydroxycyclobutyl)benzoate]"
25 to 100,25 to 100,,,"O=C(O)c1cccc([C@H]2C[C@](O)(c3ccc(OCc4c(-c5c(Cl)cccc5Cl)noc4C4CC4)cc3Cl)C2)c1 [Example 2, 3-((1s,3s)-3-(2-Chloro-4-((5-cyclopropyl-3-(2,6-dichlorophenyl)isoxazol-4-yl)methoxy)phenyl)-3-hydroxycyclobutyl)benzoic Acid]"
< 25,> 100,,,"CS(=O)(=O)NC(=O)c1cccc([C@H]2C[C@](O)(c3ccc(OCc4c(-c5c(Cl)cccc5Cl)noc4C4CC4)cc3Cl)C2)c1 [Example 4, 3-((1s,3s)-3-(2-Chloro-4-((5-cyclopropyl-3-(2,6-dichlorophenyl)isoxazol-4-yl)methoxy)phenyl)-3-hydroxycyclobutyl)-N-(methylsulfonyl)benzamide]"
25 to 100,> 100,,,"NS(=O)(=O)c1cccc(C2CC(O)(c3ccc(OCc4c(-c5c(Cl)cccc5Cl)noc4C4CC4)cc3Cl)C2)c1 (stereo not shown) [Example 5, 3-(3-(2-Chloro-4-((5-cyclopropyl-3-(2,6-dichlorophenyl)isoxazol-4-yl)methoxy)phenyl)-3-hydroxycyclobutyl)benzenesulfonamide]"
25 to 100,> 100,,,"CS(=O)(=O)c1cccc(C2CC(O)(c3ccc(OCc4c(-c5c(Cl)cccc5Cl)noc4C4CC4)cc3Cl)C2)c1 (stereo not shown) [Example 6, 1-(2-Chloro-4-((5-cyclopropyl-3-(2,6-dichlorophenyl)isoxazol-4-yl)methoxy)phenyl)-3-(3-(methylsulfonyl)phenyl)cyclobutanol]"
< 25,25 to 100,,,"CC(C)n1nc(C(=O)O)cc1[C@H]1C[C@](O)(c2ccc(OCc3c(-c4c(Cl)cccc4Cl)noc3C3CC3)cc2Cl)C1 [Example 8, 5-((1s,3s)-3-(2-Chloro-4-((5-cyclopropyl-3-(2,6-dichlorophenyl)isoxazol-4-yl)methoxy)phenyl)-3-hydroxycyclobutyl)-1-isopropyl-1H-pyrazole-3-carboxylic Acid]"
25 to 100,25 to 100,,,"CC(C)n1nc(C(=O)O)cc1[C@H]1C[C@@](O)(c2ccc(OCc3c(-c4c(Cl)cccc4Cl)noc3C3CC3)cc2Cl)C1 [Example 8A, 5-((1r,3r)-3-(2-Chloro-4-((5-cyclopropyl-3-(2,6-dichlorophenyl)isoxazol-4-yl)methoxy)phenyl)-3-hydroxycyclobutyl)-1-isopropyl-1H-pyrazole-3-carboxylate]"
< 25,25 to 100,,,"Cn1nc(C(=O)O)c2ccc(C3CC(O)(c4ccc(OCc5c(-c6c(Cl)cccc6Cl)noc5C5CC5)cc4Cl)C3)cc21 (stereo not shown) [Example 10, 6-(3-(2-Chloro-4-((5-cyclopropyl-3-(2,6-dichlorophenyl)isoxazol-4-yl)methoxy)phenyl)-3-hydroxycyclobutyl)-1-methyl-1H-indazole-3-carboxylic Acid]"
< 25,> 100,,,CC(C)n1nc(C(=O)NCC(=O)O)cc1C1CC(O)(c2ccc(OCc3c(-c4c(Cl)cccc4Cl)noc3C3CC3)cc2Cl)C1 (stereo not shown) [Example 14/1]
